Drawing on US20230365563A1, “QUINAZOLINE COMPOUND AND APPLICATION THEREOF” (SHANGHAI PHARMACEUTICALS HOLDING CO., LTD., priority 2020, published 2023), this text covers IC50 for 17 molecules.

Molecules are shown by their SMILES. Where a name gives a salt, the structure may show the parent alone.

One assay deals with T1, KRAS-G12D and SOS1 (Homo sapiens, UniProt P01116, G12D).
T1 construct: purchased
In words: Inhibition of KRAS-G12D/SOS1 binding (Cisbio binding kit, 665/615 ratio), Effect Embodiment A. As to conditions: read-out: GTP-KRAS-G12D:SOS1 IC50. In outline: (§1)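 Test compounds were serially diluted 3-fold from the storage solution over 11 points and dispensed in duplicate wells at 1% final DMSO.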

The next assay has as its target T2, KRAS_G12D and cRAF (Homo sapiens, UniProt P01116, G12D).
T2 construct: purchased
In words: Inhibition of KRAS_G12D/cRAF binding (Cisbio binding kit, 665/615 ratio), Effect Embodiment B. As to conditions: read-out: GTP-KRAS-G12D:CRAF IC50. In outline: as §1

For a further assay, the target named is T3, KRAS_WT and SOS1 (Homo sapiens, UniProt P01116).
T3 construct: purchased
T3 sequence (P01116 1-188 isoform P01116-2): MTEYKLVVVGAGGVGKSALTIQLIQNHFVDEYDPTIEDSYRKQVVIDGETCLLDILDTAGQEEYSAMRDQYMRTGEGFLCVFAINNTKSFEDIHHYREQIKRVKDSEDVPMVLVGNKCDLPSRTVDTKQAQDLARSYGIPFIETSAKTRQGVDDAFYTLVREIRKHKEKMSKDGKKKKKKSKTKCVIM
The assay can be described thus: Inhibition of KRAS_WT/SOS1 binding (Cisbio binding kit, 665/615 ratio), Effect Embodiment C. The note with it: read-out: GTP-KRAS-WT:SOS1 IC50. The essentials: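 Compounds tested as 3-fold, 11-point dilutions in duplicate at 1% DMSO final against the KRAS_WT/SOS1 binding system. IC50 derived by nonlinear regression fit.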

T1 sequence (P01116 1-188 isoform P01116-2 G12D): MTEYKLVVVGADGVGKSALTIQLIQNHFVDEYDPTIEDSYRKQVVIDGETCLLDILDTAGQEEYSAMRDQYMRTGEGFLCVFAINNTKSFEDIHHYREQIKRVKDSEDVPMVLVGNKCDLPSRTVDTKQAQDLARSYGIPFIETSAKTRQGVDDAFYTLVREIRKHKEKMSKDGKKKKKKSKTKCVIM
T2 sequence (P01116 1-188 isoform P01116-2 G12D): as above

Turning to `CO[C@H]1C[C@H]2CC[C@@H](C1)N2C[C@@H](C)COc1nc(N2CC3CCC(C2)N3)c2cc(Cl)c(-c3cc(O)cc4ccccc34)c(F)c2n1` (single isomer, unassigned) [Compound 223, 4-((S or R)-4-((1R,5S)-3,8-diazabicyclo[3.2.1]octan-3-yl)-6-chloro-8-fluoro-2-((R)-3-((1R,3R,5S)-3-methoxy-8-azabicyclo[3.2.1]octan-8-yl)-2-methylpropoxy)quinazolin-7-yl)naphthalen-2-ol diformate], the IC50 stood at 17.5 nM at KRAS-G12D and SOS1; 15.6 nM at KRAS_G12D and cRAF; 1700 nM on KRAS_WT and SOS1.
For `CO[C@@H]1C[C@H]2CC[C@@H](C1)N2C[C@@H](C)COc1nc(N2CC3CCC(C2)N3)c2cc(Cl)c(-c3cc(O)cc4ccccc34)c(F)c2n1` (single isomer, unassigned) [Compound 224, 4-((S or R)-4-((1R,5S)-3,8-diazabicyclo[3.2.1]octan-3-yl)-6-chloro-8-fluoro-2-((R)-3-((1R,3S,5S)-3-methoxy-8-azabicyclo[3.2.1]octan-8-yl)-2-methylpropoxy)quinazolin-7-yl)naphthalen-2-ol diformate] the same measures were 13.2 nM, 18.6 nM and 1350 nM.
For the molecule `C[C@@H](COc1nc(N2CC3CCC(C2)N3)c2cc(Cl)c(-c3cc(O)cc4ccccc34)c(F)c2n1)CN1C[C@H](C)OC[C@@H]1C` (single isomer, unassigned) [Compound 225, 4-((S or R)-4-((1R,5S)-3,8-diazabicyclo[3.2.1]octan-3-yl)-6-chloro-2-((R)-3-((2S,5S)-2,5-dimethylmorpholinyl)-2-methylpropoxy)-8-fluoroquinazolin-7-yl)naphthalenol formate], the IC50 on KRAS-G12D and SOS1 is 17.2 nM; at KRAS_G12D and cRAF, 17.8 nM; at KRAS_WT and SOS1, 969 nM.
For `C[C@@H](COc1nc(N2CC3CCC(C2)N3)c2cc(Cl)c(-c3cc(O)cc(Cl)c3C3CC3)c(F)c2n1)CN1C2CCC1COC2` (single isomer, unassigned) [Compound 227, 3-((7S or 7R)-2-((2R)-3-(3-oxa-8-azabicyclo[3.2.1]octan-8-yl)-2-methylpropoxy)-4-((1R,5S)-3,8-diazabicyclo[3.2.1]octan-3-yl)-6-chloro-8-fluoroquinazolin-7-yl)-5-chloro-4-cyclopropylphenol formate], the 50% inhibitory concentration (IC50) at KRAS-G12D and SOS1 stood at 16.7 nM; at KRAS_G12D and cRAF it was 23.4 nM; at KRAS_WT and SOS1 it was 593 nM.
As for `C[C@@H](COc1nc(N2CC3CCC(C2)N3)c2cc(Cl)c(-c3cc(O)cc4ccc(F)c(F)c34)c(F)c2n1)CN1C2CCC1COC2` (single isomer, unassigned) [Compound 228, ((4S or 4R) 4-(2-((2R)-3-(3-oxa-8-azabicyclo[3.2.1]octan-8-yl)-2-methylpropoxy)-4-((1R,5S)-3,8-diazabicyclo[3.2.1]octan-3-yl)-6-chloro-8-fluoroquinazolin-7-yl)-5,6-difluoronaphthalen-2-ol formate], the concentration for half-maximal inhibition (IC50) on KRAS-G12D and SOS1 came to 14.2 nM; on KRAS_G12D and cRAF, 18.3 nM; at KRAS_WT and SOS1, 92.3 nM.
Taken in the same sequence, the figures for `CCc1c(F)ccc2cc(O)cc(-c3c(F)cc4c(N5CC6CCC(C5)N6)nc(OC[C@H](C)CN5C6CCC5COC6)nc4c3F)c12` (single isomer, unassigned) [Compound 229a, 4-((7S or 7R)-2-((2R)-3-(3-oxa-8-azabicyclo[3.2.1]octan-8-yl)-2-methylpropoxy)-4-((1R,5S)-3,8-diazabicyclo[3.2.1]octan-3-yl)-6,8-difluoroquinazolin-7-yl)-5-ethyl-6-fluoronaphththalen-2-ol formate] were 16.4 nM, 11.8 nM and 160 nM.
For the molecule `C[C@@H](COc1nc(N2CC3CCC(C2)N3)c2cc(Cl)c(-c3cc(O)cc4ccccc34)c(F)c2n1)CN1C2CC3CC1CC(C2)O3` (single isomer, unassigned) [Compound 230, 4-((S or R)-2-((R)-3-((1R,3R,5R,7R)-2-oxa-6-azadamantan-6-yl)-2-methylpropoxy)-4-((1R,5S)-3,8-diazabicyclo[3.2.1]octan-3-yl)-6-chloro-8-fluoroquinazolin-7-yl)naphthalen-2-ol diformate], the concentration for half-maximal inhibition (IC50) at KRAS-G12D and SOS1 stood at 15.7 nM; at KRAS_G12D and cRAF, 28.1 nM; on KRAS_WT and SOS1 it was 626 nM.
For `CN(C)C(=O)OCC1CCC2(COc3nc(N4CC5CCC(C4)N5)c4cc(Cl)c(-c5cc(O)cc6ccccc56)c(F)c4n3)CCCN12` (single isomer, unassigned) [Compound 232a] the same measures were 13.7 nM, 7.79 nM and 10.3 nM.
Taken in the same sequence, the figures for `CCc1c(F)ccc2cc(O)cc(-c3c(Cl)cc4c(N5CC6CCC(C5)N6)nc(OC[C@H](C)CN5C6CCC5COC6)nc4c3F)c12` (single isomer, unassigned) [Compound 233b, 4-((7R or 7S)-2-((2R)-3-(3-oxa-8-azabicyclo[3.2.1]octan-8-yl)-2-methylpropoxy)-4-((1R,5S)-3,8-diazabicyclo[3.2.1]octan-3-yl)-6-chloro-8-fluoroquinazolin-7-yl)-5-ethyl-6-fluoronaphthalen-2-ol formate] were 9.1 nM, 7.18 nM and 227 nM.
Turning to `C[C@@H](COc1nc(N2CC3CCC(C2)N3)c2cc(Cl)c(-c3cc(O)cc4ccc(F)cc34)c(F)c2n1)CN1C2CCC1COC2` (single isomer, unassigned) [Compound 234a, 4-((7S or 7R)-2-((2R)-3-(3-oxa-8-azabicyclo[3.2.1]octan-8-yl)-2-methylpropoxy)-4-((1R,5S)-3,8-diazabicyclo[3.2.1]octan-3-yl)-6-chloro-8-fluoroquinazolin-7-yl)-6-fluoronaphthalen-2-ol diformate], the IC50 on KRAS-G12D and SOS1 is 11.8 nM; on KRAS_G12D and cRAF, 5.79 nM; on KRAS_WT and SOS1 it was 200 nM.
Taken in the same sequence, the figures for `Oc1cc(-c2c(Cl)cc3c(N4CC5CCC(C4)N5)nc(OCCCN4C5CC6CC4CC(C5)O6)nc3c2F)c2ccccc2c1` (single isomer, unassigned) [Compound 235, 4-((S or R)-2-(3-((1R,3R,5R,7R)-2-oxa-6-azadamantan-6-yl)propoxy)-4-((1R,5S)-3,8-diazabicyclo[3.2.1]octan-3-yl)-6-chloro-8-fluoroquinazolin-7-yl)naphthalen-2-ol formate] were 52.4 nM, 149 nM and 1770 nM.
For `C[C@@H](COc1nc(N2CC3CCC(C2)N3)c2cc(Cl)c(-c3cc(O)cc4ccccc34)c(F)c2n1)CN1C[C@@H](C)OC[C@H]1C` (single isomer, unassigned) [Compound 236, 4-((S or R)-4-((1R,5S)-3,8-diazacyclo[3.2.1]octan-3-yl)-6-chloro-2-((R)-3-((2R,5R)-2,5-dimethylmorpholinyl)-2-methylpropoxy)-8-fluoroquinazolin-7-yl)naphthalen-2-ol formate] the same measures were 19.1 nM, 15 nM and 309 nM.
Taken in the same sequence, the figures for `C[C@@H](COc1nc(N2CC3CCC(C2)N3)c2cc(Cl)c(-c3cc(O)cc4ccccc34)c(F)c2n1)CN1C[C@H](C)OC[C@H]1C` (single isomer, unassigned) [Compound 237, 4-((S or R)-4-((1R,5S)-3,8-diazacyclo[3.2.1]octan-3-yl)-6-chloro-2-((R)-3-((2S,5R)-2,5-dimethylmorpholinyl)-2-methylpropoxy)-8-fluoroquinazolin-7-yl)naphthalen-2-ol formate] were 19.5 nM, 18.6 nM and 569 nM.
As for `Oc1cc(-c2c(Cl)cc3c(N4CC5CCC(C4)N5)nc(OCCN4C5CC6CC4CC(C5)O6)nc3c2F)c2ccccc2c1` (single isomer, unassigned) [Compound 238, (S or R)-4-(2-(2-((1R,3R,5R,7R)-2-oxa-6-azadamantan-6-yl)ethoxy)-4-((1R,5S)-3,8-diazabicyclo[3.2.1]octan-3-yl)-6-chloro-8-fluoroquinazolin-7-yl)naphthalen-2-ol formate], the concentration for half-maximal inhibition (IC50) on KRAS-G12D and SOS1 came to 43.3 nM; at KRAS_G12D and cRAF, 155 nM; on KRAS_WT and SOS1, 3080 nM.
Consider `C[C@@H](COc1nc(N2CC3CCC(C2)N3)c2cc(Cl)c(-c3cc(O)cc4ccccc34)c(F)c2n1)CN1CCOC[C@H]1C` (single isomer, unassigned) [Compound 239, 4-((S or R)-4-((1R,5S)-3,8-diazacyclo[3.2.1]octyl-3-yl)-6-chloro-8-fluoro-2-((R)-2-methyl-3-((R)-3-methylmorpholinyl)propoxy)quinazolin-7-yl)naphthalen-2-ol formate], for which the 50% inhibitory concentration (IC50) at KRAS-G12D and SOS1 was determined as 15.3 nM; on KRAS_G12D and cRAF it was 18.3 nM; on KRAS_WT and SOS1 it was 496 nM.
For the molecule `Oc1cc(-c2c(Cl)cc3c(N4CC5CCC(C4)N5)nc(OCCCN4CCOC5(CC5)C4)nc3c2F)c2ccccc2c1` (single isomer, unassigned) [Compound 240, 4-((S or R)-2-(3-(4-oxa-7-azaspiro[2.5]octan-7-yl)propoxy)-4-((1R,5S)-3,8-diazacyclo[3.2.1]octan-3-yl)-6-chloro-8-fluoroquinazolin-7-yl)naphthalen-2-ol formate], the half-maximal inhibitory concentration (IC50) on KRAS-G12D and SOS1 turned out to be 39.1 nM; on KRAS_G12D and cRAF, 164 nM; at KRAS_WT and SOS1 it was 2210 nM.
With `C[C@@H]1CN(CCCOc2nc(N3CC4CCC(C3)N4)c3cc(Cl)c(-c4cc(O)cc5ccccc45)c(F)c3n2)CCO1` (single isomer, unassigned) [Compound 241, 4-((S or R)-4-((1R,5S)-3,8-diazacyclo[3.2.1]octan-3-yl)-6-chloro-8-fluoro-2-(3-((R)-2-methylmorpholinyl)propoxy)quinazolin-7-yl)naphthalen-2-ol formate], the 50% inhibitory concentration (IC50) on KRAS-G12D and SOS1 came to 49.7 nM; on KRAS_G12D and cRAF, 203 nM; on KRAS_WT and SOS1, 3600 nM.
